Measured values taken from patent US20260226073A1 (AURIGENE ONCOLOGY LIMITED, priority 2023, published 2026).

Key:
[1] = target: T1, human recombinant CBL-b (human Biotin CBL-b recombinant protein a.a. 39-426) (Homo sapiens, UniProt Q13191); assay: Biochemical assay for CBL-b inhibition (ligand displacement TR-FRET); format: binding; conditions: 50 nM CBL-b, 0.3 μM Bodipy FL-Probe, read-out: IC50 (CBL-b inhibition, group)
T1 construct: human Biotin CBL-b recombinant protein a.a; 39-426; Biotin (biotinylated); made in house
Outline: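 Biotinylated CBL-b (a.a. 39-426, 50 nM final) pre-incubated with compound 60 min at RT in HEPES/NaCl/Triton/BSA/TCEP buffer, then Bodipy FL probe (0.3 μM final) 60 min, then terbium-streptavidin 60 min. TR-FRET read at 665/615 nm; IC50 and % max inhibition from sigmoidal fits.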

[2] = system: NFAT signaling pathway in Jurkat NFAT reporter cells; assay: Jurkat NFAT reporter assay; format: cell-based; conditions: Homo sapiens, 30 min with compound, then soluble anti-human CD3/CD28 antibody for 6 hours, luciferase readout, read-out: EC50 (Group)
Description: A human T lymphocyte Jurkat reporter cell line was further used to assess activation of the nuclear factor of activated T-cells (NFAT) signaling pathway by Cbl-b inhibitors. The reporter cell line is a genetically engineered Jurkat T cell line that expresses a luciferase reporter driven by an NFAT-response element (NFAT-RE). The Cbl-b inhibitor was incubated with 1×10^5 Jurkat NFAT reporter cells per well for 30 minutes. Subsequently, cells were stimulated with soluble anti-human CD3/CD28 antibody for 6 hours resulting in NFAT-RE-mediated luminescence. The bioluminescent signal is detected and quantified using Bio-Glo™ Luciferase Assay System. Readouts were reported as fold change over baseline. Here, baseline was the measurement obtained from Jurkat NFAT reporter cells stimulated with anti-CD3 antibody and anti-CD28 antibody, where the cells were not incubated with a Cbl-b inhibitor.

T1 sequence (Q13191 39-426): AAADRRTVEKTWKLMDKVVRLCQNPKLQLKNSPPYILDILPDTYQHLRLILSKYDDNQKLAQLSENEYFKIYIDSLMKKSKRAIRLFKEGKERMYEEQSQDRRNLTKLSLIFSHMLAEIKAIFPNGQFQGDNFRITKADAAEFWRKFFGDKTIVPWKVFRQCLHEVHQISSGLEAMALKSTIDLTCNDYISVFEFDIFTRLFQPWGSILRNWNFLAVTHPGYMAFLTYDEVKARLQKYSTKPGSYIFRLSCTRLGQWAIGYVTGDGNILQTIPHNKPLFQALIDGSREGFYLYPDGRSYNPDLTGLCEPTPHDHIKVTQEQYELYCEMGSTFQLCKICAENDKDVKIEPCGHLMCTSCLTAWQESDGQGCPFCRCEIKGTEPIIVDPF

IC50 [1] [nM] | EC50 [2] [nM] | Structure (SMILES)
< 80 | 300 to 1000 | C[C@@H](Cc1nncn1C)c1ccc2c(c1)C(=O)N(c1cc(CNCCC(F)(F)F)cc(Cl)n1)C2 (single isomer, unassigned) [Compound 163]
< 80 | 1000 to 10000 | C[C@H](Cc1nncn1C)c1ccc2c(c1)C(=O)N(c1cc(CNCCC(F)(F)F)cc(Cl)n1)C2 (single isomer, unassigned) [Compound 164]
< 80 | < 300 | C[C@@H](NCC1CC1)c1cc(Cl)nc(N2Cc3ccc(C4(Cc5nncn5C)COC4)cc3C2=O)c1 (single isomer, unassigned) [Compound 166]
< 80 | < 300 | C[C@H](NCC1CC1)c1cc(Cl)nc(N2Cc3ccc(C4(Cc5nncn5C)COC4)cc3C2=O)c1 (single isomer, unassigned) [Compound 167]
< 80 | < 300 | C[C@H](Cc1nncn1C)c1ccc2c(c1)C(=O)N(c1cc(CNCC3CCC3)cc(Cl)n1)C2 (single isomer, unassigned) [Compound 170]
< 80 | < 300 | C[C@@H](Cc1nncn1C)c1ccc2c(c1)C(=O)N(c1cc(CNCC3CCC3)cc(Cl)n1)C2 (single isomer, unassigned) [Compound 171]
< 80 | < 300 | C[C@H]1CCCN(Cc2cc(Cl)nc(N3Cc4ccc([C@]5(Cc6nncn6C)C[C@@H](C#N)C5)cc4C3=O)c2)C1 (single isomer, unassigned) [Compound 179]
< 80 | 300 to 1000 | C[C@H]1CCCN(Cc2cc(Cl)nc(N3Cc4ccc([C@H](Cc5nncn5C)C(F)(F)F)cc4C3=O)c2)C1 (single isomer, unassigned) [Compound 181]
< 80 | 1000 to 10000 | Cn1cnnc1CC1(c2ccc3c(c2)C(=O)N(c2cc(CNC[C@H]4CCCO4)cc(Cl)n2)C3)COC1 (single isomer, unassigned) [Compound 195]
< 80 | < 300 | Cn1cnnc1CC1(c2ccc3c(c2)C(=O)N(c2cc(CNC[C@@H]4CCCO4)cc(Cl)n2)C3)COC1 (single isomer, unassigned) [Compound 196]
< 80 | < 300 | CC(NCC1CC1(F)F)c1cc(Cl)nc(N2Cc3ccc(C4(Cc5nncn5C)COC4)cc3C2=O)c1 (single isomer, unassigned) [Compound 206, 2-(6-Chloro-4-(1-(((2,2-difluorocyclopropyl)methyl)amino)ethyl)pyridin-2-yl)-6-(3-((4-methyl-4H-1,2,4-triazol-3-yl)methyl)oxetan-3-yl)isoindolin-1-one]
< 80 | < 300 | CC(NCC1CCC1)c1cc(Cl)nc(N2Cc3ccc(C4(Cc5nncn5C)COC4)cc3C2=O)c1 (single isomer, unassigned) [Compound 213, 2-(6-Chloro-4-(1-((cyclobutylmethyl)amino)ethyl)pyridin-2-yl)-6-(3-((4-methyl-4H-1,2,4-triazol-3-yl)methyl)oxetan-3-yl)isoindolin-1-one]
< 80 | 300 to 1000 | C[C@H](NCc1cscn1)c1cc(Cl)nc(N2Cc3ccc(C4(Cc5nncn5C)COC4)cc3C2=O)c1 (single isomer, unassigned) [Compound 218]
< 80 | < 300 | C[C@@H](NC[C@@H]1CCCO1)c1cc(Cl)nc(N2Cc3ccc(C4(Cc5nncn5C)COC4)cc3C2=O)c1 (single isomer, unassigned) [Compound 219]
< 80 | < 300 | C[C@@H](NCC1CC(F)(F)C1)c1cc(Cl)nc(N2Cc3ccc(C4(Cc5nncn5C)COC4)cc3C2=O)c1 (single isomer, unassigned) [Compound 221]
< 80 | < 300 | C[C@H](NCC1CC(F)(F)C1)c1cc(Cl)nc(N2Cc3ccc(C4(Cc5nncn5C)COC4)cc3C2=O)c1 (single isomer, unassigned) [Compound 222]

IC50 [1] [nM] | EC50 [2] [nM] | Structure (SMILES)
< 80 | < 300 | C[C@H](NCc1cc(Cl)nc(N2Cc3ccc(C4(Cc5nncn5C)COC4)cc3C2=O)c1)C1CC1 (single isomer, unassigned) [Compound 223]
< 80 | 300 to 1000 | C[C@@H](NCc1cc(Cl)nc(N2Cc3ccc(C4(Cc5nncn5C)COC4)cc3C2=O)c1)C1CC1 (single isomer, unassigned) [Compound 224]
< 80 | < 300 | C[C@H](NC1CCCC1)c1cc(Cl)nc(N2Cc3ccc(C4(Cc5nncn5C)COC4)cc3C2=O)c1 (single isomer, unassigned) [Compound 231]
< 80 | < 300 | C[C@@H](NC1CCCC1)c1cc(Cl)nc(N2Cc3ccc(C4(Cc5nncn5C)COC4)cc3C2=O)c1 (single isomer, unassigned) [Compound 232]
< 80 | < 300 | Cn1cnnc1C[C@]1(c2ccc3c(c2)C(=O)N(c2cc(CNCC4CC4)cc(Cl)n2)C3)C[C@H](C#N)C1 (single isomer, unassigned) [Compound 233, (1r,3r)-3-(2-(6-Chloro-4-(((cyclopropylmethyl)amino)methyl)pyridin-2-yl)-3-oxoisoindolin-5-yl)-3-((4-methyl-4H-1,2,4-triazol-3-yl)methyl)cyclobutane-1-carbo-nitrile]
< 80 | 1000 to 10000 | Cn1cnnc1C[C@]1(c2ccc3c(c2)C(=O)N(c2cc(CNCC4CC4)cc(Cl)n2)C3)C[C@@H](C#N)C1 (single isomer, unassigned) [Compound 234, (1s,3s)-3-(2-(6-Chloro-4-(((cyclopropylmethyl)amino)methyl)pyridin-2-yl)-3-oxoisoindolin-5-yl)-3-((4-methyl-4H-1,2,4-triazol-3-yl)methyl)cyclobutane-1-carbonitrile]
< 80 | < 300 | C[C@H](N[C@H](C)c1cc(Cl)nc(N2Cc3ccc(C4(Cc5nncn5C)COC4)cc3C2=O)c1)C1CC1 (single isomer, unassigned) [Compound 239]
< 80 | < 300 | C[C@H](N[C@H](C)C1CC1)c1cc(Cl)nc(N2Cc3ccc(C4(Cc5nncn5C)COC4)cc3C2=O)c1 (single isomer, unassigned) [Compound 240]
< 80 | < 300 | Cn1cnnc1C[C@]1(c2ccc3c(c2)C(=O)N(c2cc(CNCC4CCC4)cc(Cl)n2)C3)C[C@H](C#N)C1 (single isomer, unassigned) [Compound 244, (1r,3r)-3-(2-(6-Chloro-4-(((cyclobutylmethyl)amino)methyl)pyridin-2-yl)-3-oxoisoindolin-5-yl)-3-((4-methyl-4H-1,2,4-triazol-3-yl)methyl)cyclobutane-1-carbonitrile]
< 80 | < 300 | C[C@H](N[C@@H](C)C1CC1)c1cc(Cl)nc(N2Cc3ccc(C4(Cc5nncn5C)COC4)cc3C2=O)c1 (single isomer, unassigned) [Compound 246]
< 80 | 1000 to 10000 | C[C@H]1CCCN(Cc2cc(F)cc(N3Cc4ccc(C5(Cc6nncn6C)COC5)cc4C3=O)c2)C1 [Compound 3, (S)-2-(3-Fluoro-5-((3-methylpiperidin-1-yl)methyl)phenyl)-6-(3-((4-methyl-4H-1,2,4-triazol-3-yl)methyl)oxetan-3-yl)isoindolin-1-one]
80 to 300 | 1000 to 10000 | COc1cc(CN2CCC[C@H](C)C2)cc(N2Cc3ccc(C4(Cc5nncn5C)COC4)cc3C2=O)c1 [Compound 5, (S)-2-(3-Methoxy-5-((3-methylpiperidin-1-yl)methyl)phenyl)-6-(3-((4-methyl-4H-1,2,4-triazol-3-yl)methyl)oxetan-3-yl)isoindolin-1-one]
80 to 300 | 300 to 1000 | C[C@H]1CCCN(Cc2cc(C3CC3)cc(N3Cc4ccc(C5(Cc6nncn6C)COC5)cc4C3=O)c2)C1 [Compound 7, (S)-2-(3-Cyclopropyl-5-((3-methylpiperidin-1-yl)methyl)phenyl)-6-(3-((4-methyl-4H-1,2,4-triazol-3-yl)methyl)oxetan-3-yl)isoindolin-1-one]
300 to 5000 | 1000 to 10000 | C[C@H]1CCCN(Cc2cccc(N3Cc4ccc(C5(Cc6nncn6C)COC5)cc4C3=O)c2)C1 [Compound 8, (S)-6-(3-((4-Methyl-4H-1,2,4-triazol-3-yl)methyl)oxetan-3-yl)-2-(3-((3-methyl-piperidin-1-yl)methyl)phenyl)isoindolin-1-one]
80 to 300 | 300 to 1000 | C=Cc1cc(CN2CCC[C@H](C)C2)cc(N2Cc3ccc(C4(Cc5nncn5C)COC4)cc3C2=O)c1 [Compound 9, (S)-6-(3-((4-Methyl-4H-1,2,4-triazol-3-yl)methyl)oxetan-3-yl)-2-(3-((3-methyl-piperidin-1-yl)methyl)-5-vinylphenyl)isoindolin-1-one]
< 80 | < 300 | C[C@H]1CCCN(Cc2cc(Br)cc(N3Cc4ccc(C5(Cc6nncn6C)COC5)cc4C3=O)c2)C1 [Compound 10, (S)-2-(3-Bromo-5-((3-methylpiperidin-1-yl)methyl)phenyl)-6-(3-((4-methyl-4H-1,2,4-triazol-3-yl)methyl)oxetan-3-yl)isoindolin-1-one]
